Measurements published in patent publication US12419888B2, “Methods of treating elevated plasma cholesterol” (INSTITUT DE CARDIOLOGIE DE MONTREAL, priority 2020, dated 2025).

Test system: LDLR protein levels in HepG2 cells
Test: Western blot analysis of relative LDLR protein levels in HepG2 cells after treatment
Assay type: cell-based, human
Conditions: HepG2 cells incubated overnight with compound, 0.2 μM to 20 μM
Procedure: Cell culture, treatments and cell viability assay. For phenotypic screening of PCSK9 modulators and/or LDLR small molecule inducers, human HepG2 cells were incubated overnight in conditioned media containing chemical compounds resuspended in DMSO at concentration ranging from 0.2 μM to 20 μM. […] Following incubation, media have been replaced and cells incubated for 4 h with 100 μL of phenol red-free DMEM containing 0.5 mg/mL of MTT (3-[4,5-dimethylthiazol-2-yl]-2,5-diphenyltetrazolium bromide; thiazolyl blue; catalog no. M5655, Sigma-Aldrich), following manufacturer's instructions.
Western Blot Analysis, Immunocytochemistry and LDLR Activity Assay. Following incubation, cells were washed three times in phosphate-buffered saline (PBS) and lysed in radioimmune precipitation assay buffer (50 mM Tris/HCl, pH 8.0, 1% (v/v) Nonidet P-40, 0.5% sodium deoxycholate, 150 mM NaCl, and 0.1% (v/v) SDS) supplemented with a complete protease inhibitor mixture (catalog no. 11 697 498 001, Roche Applied Science). Proteins were separated by SDS polyacrylamide gel electrophoresis, blotted on nitrocellulose membranes (Bio-Rad), blocked incubated with indicated antibodies as described (Poirier S, et al., Cell Rep, 2015). For immunocytochemistry analysis, cells were permeabilized or not with 0.1% Triton X-100/PBS for 10 min, and incubated with 150 mM glycine, blocked and incubated with indicated primary and secondary antibodies. Immunofluorescence analyses were performed with an Olympus FluoView FV10i confocal microscope (Poirier et al., Cell Rep. 2015; 13(10):2064-2071). For LDLR activity assay, HepG2 cells were incubated overnight without or with a given compound in the presence of 5 μg/ml fluorescent labelled DiI-LDL (Alfa Aesar, Cat. #J65330) and co-stained for LDLR if applicable, as described (Poirier et al., J Biol Chem. 2009; 284(42):28856-28864). Immunofluorescence analyses were performed with an Olympus FluoView FV10i confocal microscope.

Compound	LDLR Fold (relative LDLR protein levels) [Fold]
3-(1,3-benzodioxol-5-yl)-1-[(1S)-1-(6-methylpyridin-2-yl)-1,3,4,9-tetrahydropyrido[3,4-b]indol-2-yl]propan-1-one [Compound 23]	1.2
CCOc1cccc([C@@H]2CC(c3ccc(C)cc3)=NC3(CCN(C(C)=O)CC3)N2)c1O (stereo in doubt) [Compound 3, 1-[4-(3-ethoxy-2-hydroxyphenyl)-2-(4-methylphenyl)-1,5,9-triazaspiro[5.5]undec-1-en-9-yl]ethan-1-one]	1.8 ± 0.6
CN1C(=O)c2cc(C(=O)N3CCN(c4ccccc4)CC3)nn2C[C@]1(C)C(=O)NC1CCCCCC1 (stereo in doubt) [Compound 5, N-cycloheptyl-5,6-dimethyl-4-oxo-2-(4-phenylpiperazine-1-carbonyl)-4H,5H,6H,7H-pyrazolo[1,5-a]pyrazine-6-carboxamide]	0.8 ± 0.0
O=C(NCCc1c[nH]c2ccccc12)c1ccc2c(c1)NC(=O)[C@H]1CCCCN21 (stereo in doubt) [Compound 8, N-[2-(1H-indol-3-yl)ethyl]-6-oxo-5,6a,7,8,9,10-hexahydropyrido[1,2-a]quinoxaline-3-carboxamide]	1.0 ± 0.2
COc1ccc2cc([C@]3(C)NC(=O)N(CC(=O)N4CCC[C@@H]5CCCC[C@@H]54)C3=O)ccc2c1 (stereo in doubt) [Compound 15, 3-[2-(decahydroquinolin-1-yl)-2-oxoethyl]-5-(6-methoxynaphthalen-2-yl)-5-methylimidazolidine-2,4-dione]	1.1 ± 0.6
C[C@@]1(c2ccc3ccccc3c2)NC(=O)N(CC(=O)N2CCC[C@@H]3CCCC[C@@H]32)C1=O (stereo in doubt) [Compound 17, 3-[2-(decahydroquinolin-1-yl)-2-oxoethyl]-5-methyl-5-(naphthalen-2-yl)imidazolidine-2,4-dione]	1.2 ± 0.6
CC[C@@H]1CCCCN1C(=O)CN1C(=O)N[C@@](C)(c2ccc3ccccc3c2)C1=O (stereo in doubt) [Compound 18, 3-[2-(2-ethylpiperidin-1-yl)-2-oxoethyl]-5-methyl-5-(naphthalen-2-yl)imidazolidine-2,4-dione]	1.4 ± 0.7
C[C@@]1(c2ccc3ccccc3c2)NC(=O)N(CC(=O)N2CCC(Cc3ccccc3)CC2)C1=O (stereo in doubt) [Compound 19, 3-[2-(4-benzylpiperidin-1-yl)-2-oxoethyl]-5-methyl-5-(naphthalen-2-yl)imidazolidine-2,4-dione]	1.0 ± 0.5
Cc1cccc([C@@H]2c3[nH]c4ccccc4c3CCN2C(=O)CCN2CCCCC2=O)n1 (stereo in doubt) [Compound 20, 1-{3-[1-(6-methylpyridin-2-yl)-1H,2H,3H,4H,9H-pyrido[3,4-b]indol-2-yl]-3-oxopropyl}piperidin-2-one]	1.4
CC(C)(O)C#Cc1cccc(C(=O)N2CCc3c([nH]c4ccccc34)[C@H]2c2ccccn2)c1 (stereo in doubt) [Compound 21, 2-methyl-4-{3-[1-(pyridin-2-yl)-1H,2H,3H,4H,9H-pyrido[3,4-b]indole-2-carbonyl]phenyl}but-3-yn-2-ol]	1.0
Cc1ccc2c(CC(=O)N3CCc4c([nH]c5ccccc45)[C@H]3c3ccccn3)cc(=O)oc2c1 (stereo in doubt) [Compound 22, 7-methyl-4-{2-oxo-2-[1-(pyridin-2-yl)-1H,2H,3H,4H,9H-pyrido[3,4-b]indol-2-yl]ethyl}-2H-chromen-2-one]	1.4
Cc1cccc([C@H]2c3[nH]c4ccccc4c3CCN2C(=O)C(=O)CCc2ccccc2)n1 (stereo in doubt) [Compound 24, 1-[1-(6-methylpyridin-2-yl)-1H,2H,3H,4H,9H-pyrido[3,4-b]indol-2-yl]-4-phenylbutane-1,2-dione]	1.6
Cc1cccc([C@H]2c3[nH]c4ccccc4c3CCN2C(=O)CCc2ccccc2)n1 (stereo in doubt) [Compound 27, 1-[1-(6-methylpyridin-2-yl)-1H,2H,3H,4H,9H-pyrido[3,4-b]indol-2-yl]-3-phenylpropan-1-one]	1.0
CC1=NC2=NC(NCCc3c[nH]c4ccccc34)=N[C@H](c3ccccc3)N2C(O)=C1 (stereo in doubt) [Compound 29, 2-{[2-(1H-indol-3-yl)ethyl]amino}-8-methyl-4-phenyl-4H-pyrimido[1,2-a][1,3,5]triazin-6-ol]	0.9
CC1=NC2=NC(N3CCC(Cc4ccccc4)CC3)=N[C@H](c3ccccc3)N2C(O)=C1 (stereo in doubt) [Compound 30, 2-(4-benzylpiperidin-1-yl)-8-methyl-4-phenyl-4H-pyrimido[1,2-a][1,3,5]triazin-6-ol]	0.6
CC1=NC2=NC(N3CCN(c4ccccc4)CC3)=N[C@H](c3ccc(Cl)cc3)N2C(O)=C1 (stereo in doubt) [Compound 31, 4-(4-chlorophenyl)-8-methyl-2-(4-phenylpiperazin-1-yl)-4H-pyrimido[1,2-a][1,3,5]triazin-6-ol]	1.1
CC1=NC2=NC(N3CCC(Cc4ccccc4)CC3)=N[C@H](c3cccnc3)N2C(O)=C1 (stereo in doubt) [Compound 34, 2-(4-benzylpiperidin-1-yl)-8-methyl-4-(pyridin-3-yl)-4H-pyrimido[1,2-a][1,3,5]triazin-6-ol]	1.0
O=C([C@H]1CCCO1)N1CCN(c2nnc(-c3ccccc3)c3ccccc23)CC1 (stereo in doubt) [Compound 42, 1-[4-(oxolane-2-carbonyl)piperazin-1-yl]-4-phenylphthalazine]	0.6
Cc1ccc2nccc(C(=O)N3CCC[C@H](Cn4cc(C(C)(C)N)nn4)C3)c2c1 (stereo in doubt) [Compound 44, 2-[1-({1-[(6-methylquinolin-4-yl)carbonyl]piperidin-3-yl}methyl)-1H-1,2,3-triazol-4-yl]propan-2-amine]	1.2
O=C(Nc1ccccc1)[C@H]1CCCN(C(=O)c2cc(C3CC3)nc3ccccc23)C1 (stereo in doubt) [Compound 45, 1-(2-cyclopropylquinoline-4-carbonyl)-N-phenylpiperidine-3-carboxamide]	1.2
O=C(Nc1ccccc1)[C@H]1CCCN(C(=O)c2cc(-c3ccncc3)nc3ccccc23)C1 (stereo in doubt) [Compound 46, N-phenyl-1-[2-(pyridin-4-yl)quinoline-4-carbonyl]piperidine-3-carboxamide]	1.1
COc1cc(C(=O)N2CCC[C@H](CNS(=O)(=O)c3cccs3)C2)c2ccccc2n1 (stereo in doubt) [Compound 48, N-{[1-(2-methoxyquinoline-4-carbonyl)piperidin-3-yl]methyl}thiophene-2-sulfonamide]	1.0
Cc1cc(C(=O)N2CCC[C@H](c3ccc(C(=O)O)cc3)C2)c2ccc(F)cc2n1 (stereo in doubt) [Compound 49, 4-[1-(7-fluoro-2-methylquinoline-4-carbonyl)piperidin-3-yl]benzoic acid]	1.6
Cc1cccc(C(=O)N2CCC[C@H](Cn3cc(C(C)(C)N)nn3)C2)c1C (stereo in doubt) [Compound 50, 2-(1-{[1-(2,3-dimethylbenzoyl)piperidin-3-yl]methyl}-1H-1,2,3-triazol-4-yl)propan-2-amine]	1.1
COc1ccccc1[C@H]1N=C(N2CCC(Cc3ccccc3)CC2)N=C2N=C(C)C=C(O)N21 (stereo in doubt) [Compound 52, 2-(4-benzylpiperidin-1-yl)-4-(2-methoxyphenyl)-8-methyl-4H-pyrimido[1,2-a][1,3,5]triazin-6-ol]	0.7
C[C@H](NC(=O)[C@@H]1Cc2c([nH]c3ccccc23)[C@H]2c3ccccc3C(=O)N21)C(=O)NC1CCCC1 [Compound 1, (2S)—N-cyclopentyl-2-{[(11 S)-9-oxo-10,20-diazapentacyclo[11.7.0.0^2,^10.0^3,^8.0^14,^19]icosa-1(13),3,5,7,14,16,18-heptaen-11-yl]formamido}propanamide]	1.2 ± 0.2
Cc1nn(CC(=O)N2CCc3c([nH]c4ccccc34)[C@H]2c2ccccn2)c(=O)c2ccccc12 [Compound 2, 4-methyl-2-{2-oxo-2-[1-(2-pyridinyl)-1,3,4,9-tetrahydro-2H-beta-carbolin-2-yl]ethyl}-1(2H)-phthalazinone]	1.0 ± 0.5
